The conditions of data set [1]: cited from earlier work; for Development Toxicant Classification: Table S2; for DT Class.: developmental toxicant classification; for Classification: developmental toxicant classification (Teratogen / Non-Teratogen) of reference and training chemicals, ref DOI per chemical: 10.1093/toxsci/kft239, 10.1093/toxsci/kfaa014, 10.1177/026119290203000204, 10.1038/s41598-020-59542-x.

Data set [2] has as its system RUES2-GLR cells. Description: DevTox GLR-Endo assay: decrease in total cell count, cytotoxicity (AEID 3098, CellCount_dn). Conditions: for Emax: Homo sapiens, read-out: Cell Count % Max Inhibition.
A short description of data set [3]: in vitro. Conditions: human.
The test system of data set [4] is SOX2 (ectoderm and pluripotency marker) in RUES2-GLR cells. Description: DevTox GLR-Endo assay: increase in percent SOX2-positive cells (AEID 3095, Sox2_up).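 On all read-outs here: cells exposed to test chemicals for 48 h in total.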 Conditions: for AC50 / Emax: Homo sapiens; for AC50: read-out: ga (winning model); for Emax: read-out: tp (winning model); for MAX_MEAN: tcpl plot AEID3095, maximum mean response; for MAX_MED: tcpl plot AEID3095, maximum median response.

The test system of data set [5] is H9 human ESC line. The note with it: cited from earlier work.
For data set [6], the system named is SOX17 (endoderm marker) in RUES2-GLR cells. Description: DevTox GLR-Endo assay: increase in percent SOX17-positive cells (AEID 3093, Sox17_up). Conditions: for Emax: Homo sapiens; for HIT−CALL: tcpl plot AEID3093, COFF 20.3. On the set-up: tp (winning model): unit not given here. It counts as cell-based, human. As for the experimental part:
(§1) The total test chemical incubation period was 48 h.
(§2) (Supplementary Materials).

Data set [7] has the same test system. Put plainly: DevTox GLR-Endo assay: decrease in percent SOX17-positive cells (AEID 3094, Sox17_dn). The procedure, abridged:
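Readouts are loss of SOX17-positive fraction and reduced cell number in endoderm-differentiating RUES2-GLR cells after 48 h of chemical exposure. Controls: undifferentiated and differentiated cells, 0.2% DMSO, and 1 µM SB431542; at least four biological replicates.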

Data set [8] relates to BRA (mesoderm marker) in RUES2-GLR cells. Put plainly: DevTox GLR-Endo assay: increase in percent BRA-positive cells (AEID 3096, Bra_up). The note with it: for HIT−CALL: tcpl plot AEID3096, COFF 0.774; for MAX_MEAN: tcpl plot AEID3096, maximum mean response; for MAX_MED: tcpl plot AEID3096, maximum median response. The format is cell-based, human. As for the experimental part:
as §1, §2

Where [9] appears, read: cytotoxicity half-maximal concentration.
[10] abbreviates: tcpl plot AEID3093, maximum mean response, read-out: MAX_MEAN.
The mark [11] stands for this setting: tcpl plot AEID3093, maximum median response, read-out: MAX_MED.
[12] abbreviates: Homo sapiens, 48 h, read-out: DevTox-GLR Endo AC50 (µM), SOX17 half-maximal activity concentration, 48 h exposure.
Where [13] appears, read: Homo sapiens, read-out: ga (winning model), tcpl plot AEID3094, gain parameter of winning curve fit (log concentration, µM axis), hit calls only (converted).
Setting [14] is: Table S2, SOX17-positive cells, cutoff 3*bmad.
Setting [15] is: Table S2, percent SOX17-positive cells, 48 h exposure.
The mark [16] stands for this setting: chemicals common with quickPredict.
Setting [17] is: Homo sapiens, read-out: DevTox % Max Inhibition.
[18] abbreviates: Homo sapiens, read-out: MAX_MEAN.
Setting [19] is: Homo sapiens, read-out: MAX_MED.
[20] abbreviates: Homo sapiens, read-out: tp (winning model).
Setting [21] is: Homo sapiens, read-out: maximum observed effect level class (% max inhibition).

pIC50: −log10 of the molar value. Like-named read-outs stand apart in the source and are kept apart here.

Regarding `COc1cccc2c1C(=O)c1c(O)c3c(c(O)c1C2=O)C[C@@](O)(C(=O)CO)C[C@@H]3O[C@H]1C[C@H](N)[C@H](O)[C@H](C)O1` [Doxorubicin], the “Development Toxicant Classification” value in data set [1] was “Positive”. Moreover, the “DT Class.” value in data set [1] (chemicals common with hPST) was “Pos”. For the same molecule, the Emax turned out to be 93.9% in data set [2], 19.8% in data set [4], 50.4% in data set [6] (setting [10]) and 51.7% in data set [6] (setting [11]). Besides, in data set [2] (human, 48 h), the “Cell Count ACC” value was determined as 0.001329 µM. This molecule also gave a CC50 at 48 h in data set [3] of 3.3 nM. Besides, the AC50 in data set [4] was 640 nM; in data set [7] (setting [12]) it was 0.0019 µM; in data set [7] (setting [13]), 0.00186 µM. This molecule had an MAX_MEAN in data set [4] of 9.13 Percent Activity. The MAX_MED in data set [4] was determined as 8.86 Percent Activity. Further, the “hPST TC50” value is <300 nM in data set [5] (setting [9]) and < 300 nM in data set [5] (hPST cytotoxicity). The “HIT−CALL” value in data set [6] was determined as 1; in data set [7] (tcpl plot AEID3094, COFF 20.3), 1. The “tp (winning model)” value in data set [6] (tcpl plot AEID3093, top of winning curve fit, hit calls only) turned out to be 48.7. The “Hit Call” value in data set [7] (setting [14]) is reported as “Positive”. In data set [7] (setting [15]), the “DevTox ACC” value is recorded as 0.001242 µM.

Regarding `CC/C(=C(/CC)c1ccc(O)cc1)c1ccc(O)cc1` [Diethylstilbestrol], the “Development Toxicant Classification” value in data set [1] was “Positive”. Further, the Classification entry in data set [1] is “Teratogen”. Also, the “DT Class.” value in data set [1] (chemicals common with hPST) and in data set [1] (setting [16]) was “Pos” each time. Besides, the Emax in data set [2] was found to be 95.7%; in data set [4], 3.84%; in data set [6] (setting [10]), 6.93%; in data set [6] (setting [11]), 6.73%; in data set [7] (setting [17]) it was 101%; in data set [7] (setting [18]), 101%. Moreover, the Emax in data set [7] (setting [19]) and in data set [7] (setting [20]) was 101% throughout. For the same molecule, in data set [2] (human, 48 h), the “Cell Count ACC” value was determined as 0.5959 µM. Besides, the “DevTox-GLR Endo CC” value in data set [2] (human, 48 h) turned out to be 0.60 µM. Moreover, the CC50 at 48 h in data set [3] came out at 710 nM. In addition, the AC50 in data set [4] was 2130 nM; in data set [7] (setting [12]) it was 0.64 µM; in data set [7] (setting [13]), 0.644 µM. The molecule further registered an MAX_MEAN in data set [4] of 6.09 Percent Activity. This molecule also came in with an MAX_MED in data set [4] of 4.84 Percent Activity. Further, the “hPST TC50” value in data set [5] (setting [9]) and in data set [5] (hPST cytotoxicity) was 4400 nM throughout. For the same molecule, the “HIT−CALL” value is recorded as 0 in data set [6] and 1 in data set [7] (tcpl plot AEID3094, COFF 20.3). Also, in data set [7] (setting [14]), the “Hit Call” value was “Positive”. Moreover, in data set [7] (activity concentration at cutoff, SOX17-positive cells, 48 h exposure), the “DevTox-GLR Endo ACC” value is recorded as 0.54 µM.

With `COc1cc2ncnc(Nc3ccc(F)c(Cl)c3)c2cc1OCCCN1CCOCC1` [Gefitinib], the “Cell Count ACC” value in data set [2] (human, 48 h) is 5.08 µM. In addition, the CC50 at 48 h in data set [3] came to 6600 nM. Moreover, the AC50 in data set [4] is 6350 nM; in data set [7] (setting [12]), 5.75 µM; in data set [7] (setting [13]) it was 5.75 µM. In addition, the Emax in data set [4] was found to be 3.17%; in data set [6] (setting [10]), 10.5%; in data set [6] (setting [11]), 7.83%; in data set [7] (setting [18]), 102%; in data set [7] (setting [19]) it was 101%; in data set [7] (setting [20]), 101%. The molecule also gave an MAX_MEAN in data set [4] of 5.99 Percent Activity. In addition, the MAX_MED in data set [4] came out at 4.85 Percent Activity. For the same molecule, the “hPST TC50” value in data set [5] (setting [9]) and in data set [5] (hPST cytotoxicity) was 10000 nM each time. The “HIT−CALL” value in data set [6] was 0. Also, the “DevTox ACC” value in data set [7] (setting [15]) was found to be 4.584 µM.

For `O=P1(N(CCCl)CCCl)NCCCO1` (stereo not drawn) [Cyclophosphamide], the “Development Toxicant Classification” value in data set [1] was “Positive”. Further, the Classification result in data set [1] is “Teratogen”. For the same molecule, the “DT Class.” value in data set [1] (setting [16]) is listed as “Pos”. Also, the Emax worked out at 25.6% in data set [2]; 8.69% in data set [6] (read-out: MAX_MEAN); 8.98% in data set [6] (read-out: MAX_MED); 7.49% in data set [7] (setting [17]); 6.4% in data set [7] (setting [18]); 7.49% in data set [7] (setting [19]). Moreover, the Emax in data set [7] (setting [21]) was 0 to 20%. In data set [2] (human), the “Cell Count ACC” value was 100.193 µM. Further, the “DevTox-GLR Endo CC” value in data set [2] (human) came to 100.19 µM. Moreover, in data set [2] (human), the “effect on cell count (in words)” value is reported as “significant cell loss that did not impact SOX17-positive populations”. For the same molecule, the “HIT−CALL” value in data set [8], in data set [6] and in data set [7] was 0 in each case. The MAX_MEAN in data set [8] is reported as 0.871 Percent Activity; in data set [4], 0.952 Percent Activity. Further, the figures for the MAX_MED in data set [8] and in data set [4] were 0.897 Percent Activity and 0.491 Percent Activity, respectively. Besides, the “DevTox ACC” value in data set [7] is >200 µM. In data set [7], the “Hit Call” value was “Negative”. Besides, the “hit call designation (in words)” value in data set [7] is on record as “false negative”.

Consider `Nc1cccc2c1C(=O)N(C1CCC(=O)NC1=O)C2=O` (stereo not drawn) [Pomalidomide], for which, in data set [1], the “Development Toxicant Classification” value was “Positive”. Moreover, the Classification result in data set [1] is recorded as “Teratogen”. In addition, in data set [1] (reference chemicals), the “Developmental Toxicant Classification” value was “Positive”. For the same molecule, the Emax in data set [2] was found to be 37.2%; in data set [4], 88.9%; in data set [6] (setting [10]), 8.72%; in data set [6] (setting [11]) it was 7.3%; in data set [7] (setting [17]), 95.9%; in data set [7] (setting [18]), 95.3%. For the same molecule, the Emax is 95.9% in data set [7] (setting [19]) and 94% in data set [7] (setting [20]). For the same molecule, in data set [2] (Table S2, 48 h exposure), the “Cell Count ACC” value was determined as 0.27 µM. The “effect on cell counts (in words)” value in data set [2] (reference chemical testing, increasing concentrations) is recorded as “cell counts remained constant”. Moreover, the “HIT−CALL” value in data set [8] is 0; in data set [6] it was 0; in data set [7] (tcpl plot AEID3094, COFF 20.3) it was 1. Besides, the MAX_MEAN in data set [8] worked out at 0.865 Percent Activity; in data set [4] it was 62.1 Percent Activity. For the same molecule, the results for the MAX_MED in data set [8] and in data set [4] were 0.894 Percent Activity and 67.4 Percent Activity, respectively. Moreover, the AC50 in data set [4] was 148000 nM; in data set [7] (setting [13]), 0.0661 µM. Besides, the “effect on SOX17-positive cells (in words)” value in data set [7] (48 h exposure during directed endoderm differentiation) is on record as “significant reductions in the SOX17-positive sub-population”. Besides, the negative-log IC50 (pIC50) in data set [7] (Homo sapiens, 48 h) was 7.30. The “Hit Call” value in data set [7] (setting [14]) is listed as “Positive”. In addition, the “DevTox ACC” value in data set [7] (setting [15]) came out at 0.01911 µM. Further, the “% Max Inhibition” value in data set [7] (maximum inhibition of SOX17-positive cells, reference chemical testing, 48 h exposure) is listed as 81%.

With `CC1=C2C[C@H]3[C@@H](CC=C4C[C@@H](O)CC[C@@]43C)[C@@H]2CC[C@]12O[C@@H]1C[C@H](C)CN[C@H]1[C@H]2C` [Cyclopamine], in data set [1], the “Development Toxicant Classification” value was “Positive”. The Classification result in data set [1] was “Teratogen”. Also, the “DT Class.” value in data set [1] (setting [16]) was “Pos”. In addition, the Emax in data set [2] was 9.2%; in data set [6] (read-out: MAX_MEAN), 3.34%; in data set [6] (read-out: MAX_MED), 3.36%; in data set [7] (setting [17]), 22.7%; in data set [7] (setting [18]) it was 34.8%; in data set [7] (setting [19]), 22.7%. The Emax in data set [7] (setting [21]) is 20 to 80%. Also, the “Cell Count ACC” value in data set [2] (Table S2, 48 h exposure) was >200 µM. Moreover, the “HIT−CALL” value in data set [8] is listed as 1; in data set [4], 0; in data set [6], 0; in data set [7] (tcpl plot AEID3094, COFF 20.3), 0. In addition, the MAX_MEAN in data set [8] is given as 4.76 Percent Activity; in data set [4], 5.31 Percent Activity. In addition, the MAX_MED in data set [8] worked out at 1.9 Percent Activity; in data set [4], 0.885 Percent Activity. The “hit call designation (in words)” value in data set [7] (DevTox GLR-Endo prediction against developmental toxicant classification) is “borderline calls”. Also, in data set [7] (setting [14]), the “Hit Call” value was “Negative”. In addition, the “DevTox ACC” value in data set [7] (setting [15]) is given as >200 µM.
